Assay results: PMC9863987, “Identification of Aryl Polyamines Derivatives as Anti-Trypanosoma cruzi Agents Targeting Iron Superoxide Dismutase” (Pharmaceutics, 2022)

Experiments:
[1] = tested on: T. cruzi Arequipa strain amastigotes; assay: Screening against intracellular amastigotes in Vero cells, Arequipa strain (Giemsa counting); format: cell-based, Trypanosoma cruzi
Method: (§1) TINF/CH/1956/Tulahuen, DTU VI [26]—were grown at 28 °C in Gibco® RPMI 1640 Medium supplemented as previously reported, and used for in vitro screening. Trypanocidal activity against amastigotes was tested as previously reported. In brief, bloodstream trypomastigotes (BTs), obtained by cardiac puncture from infected BALB/c mice, were used to infect 1 × 10^4 Vero cells·well^−1 in 24-well plates with rounded coverslips at a multiplicity of infection (MOI) ratio of 10:1. After 24 h of infection, non-internalized trypomastigotes were washed and the infected cells were treated by adding the compounds in serial dilutions from 50 to 0.5 µM in […] for 72 h. BZN and untreated growth controls were also included in triplicate. Later, the number of amastigotes and infected cells were determined in Giemsa stained preparations by analysing 500 host cells randomly distributed in microscopic fields. The trypanocidal activity was expressed as the IC50 using GraphPad Prism 6 software (version 6.07).

[2] = tested on: T. cruzi Arequipa strain trypomastigotes; assay: Screening against bloodstream trypomastigotes, Arequipa strain (resazurin); format: cell-based, Trypanosoma cruzi; settings: Trypanosoma cruzi; trypomastigotes; 24 h + 4 h resazurin; mean of three ± SD
[3] = tested on: T. cruzi SN3 strain amastigotes; assay: Screening against intracellular amastigotes in Vero cells, SN3 strain (Giemsa counting); format: cell-based, Trypanosoma cruzi; settings: Trypanosoma cruzi; amastigotes in Vero cells; 72 h; mean of three ± SD
Method: as §1

[4] = tested on: T. cruzi Tulahuen strain epimastigotes; assay: Screening against extracellular epimastigotes, Tulahuen strain (resazurin); format: cell-based, Trypanosoma cruzi; settings: Trypanosoma cruzi, TULAHUEN; epimastigotes; 48 h treatment + 24 h resazurin; mean of three ± SD; read-out: Activity IC50 T. cruzi Tulahuen Strain E
Method: Three different T. cruzi […] strains—MHOM/Pe/2011/Arequipa, discrete typing unit (DTU) V [26]; IRHOD/CO/2008/SN3, DTU I [27]; TINF/CH/1956/Tulahuen, DTU VI [26]—were grown at 28 °C in Gibco® RPMI 1640 Medium supplemented as previously reported, and used for in vitro screening.
Trypanocidal activity against epimastigotes was tested as previously reported. In brief, 5 × 10^5 mL^−1 epimastigotes culture medium were treated by adding the compounds in serial dilutions from 100 to 0.2 µM in 96-well plates (200 µL·well^−1) for 48 h. BZN and untreated growth control were also included in triplicate. Later, 20 μL of resazurin sodium salt (Sigma-Aldrich, St. Louis, MO, USA) was added, and the plates were incubated for another 24 h. Finally, the absorbance of the wells was measured at 570/600 nm and related to the control. The trypanocidal activity was expressed as the IC50 (inhibitory concentration 50) value using GraphPad Prism 6 software.

[5] = tested on: T. cruzi Tulahuen strain amastigotes; assay: Screening against intracellular amastigotes in Vero cells, Tulahuen strain (Giemsa counting); format: cell-based, Trypanosoma cruzi; settings: Trypanosoma cruzi, TULAHUEN; amastigotes in Vero cells; 72 h; mean of three ± SD
Method: as §1

[6] = tested on: T. cruzi Tulahuen strain trypomastigotes; assay: Screening against bloodstream trypomastigotes, Tulahuen strain (resazurin); format: cell-based, Trypanosoma cruzi; settings: Trypanosoma cruzi, TULAHUEN; trypomastigotes; 24 h + 4 h resazurin; mean of three ± SD
T. cruzi Arequipa strain [7] = assay: Monitoring of acute parasitaemia by counting in infected BALB/c mice; format: in vivo, Trypanosoma cruzi; settings: acute infection
Method: (§2) All animal work (Scheme 1) and maintenance was performed under RD53/2013 and approved by the Ethics Committee on Animal Experimentation (CEEA) of the University of Granada, Spain. Female BALB/c mice (aged 10–12 weeks and 20–22 g) were used in the subsequent in vivo assays.
(§3) Infection was carried out by intraperitoneal inoculation of 5 × 10^5 BTs of T. cruzi Arequipa strain per mouse in 0.2 mL PBS [26]. The infection was monitored and on the 10th day post-infection (dpi), when BTs were visible in the bloodstream, the infection was confirmed.
(§4) Mice were divided into four groups (n = 3 per group): 0, negative control group (uninfected and untreated mice); I, positive control group (infected and untreated mice); II, BZN group (mice infected and treated with BZN); III, 15 group (mice infected and treated with 15).
(§5) The treatment for mice treated in the acute and chronic CD began when the infection was confirmed (10th dpi) and was stablished that the animals had entered the chronic CD (75th dpi), respectively (Scheme 1). Compound 15 and BZN were orally administered for 5 consecutive days at a dose of 20 mg·Kg^−1·day^−1.
[…]. The fresh blood microscopic examination was performed from the 7th day until the day when parasitaemia was not detected (Scheme 1).

T. cruzi Arequipa strain [8] = assay: Infection reactivation by cyclophosphamide immunosuppression in infected BALB/c mice; format: in vivo, Trypanosoma cruzi; settings: oral 20 mg/Kg/day for 5 days, related to control group
T. cruzi Arequipa strain [9] = assay: Nested amastigotes detection by PCR in nine target organs/tissues of infected BALB/c mice; format: in vivo, Trypanosoma cruzi; settings: oral 20 mg/Kg/day for 5 days
Method: as §3, §4, §5
After CP-induced immunosuppression, the mice were euthanised using CO2 by exsanguination via cardiac puncture, and blood was collected. Then, 9 target organs/tissues were harvested: adipose, bone marrow, brain, oesophagus, heart, lung, muscle, spleen, and stomach. These organs/tissues were perfused with pre-warmed PBS to avoid contamination with BTs, and stored at −80 °C. In addition, spleens were weighed to assess splenomegaly.
DNA extraction of the target organs/tissues was performed using Wizard® Genomic DNA Purification Kit. DNA was subjected to amplification by PCR based on the sequence of the T. cruzi splice leader (SL) intergenic region using two published primers (TC and TC1) that allow the amplification of a 300 base pairs fragment in different biological samples. […]

[10] = Clinical analysis of heart, kidney and liver markers in serum of treated mice; format: in vivo, BALB/c mice; settings: n = 3
Method: as §3, §4, §5
Blood samples were collected in several dpi (Scheme 1) and processed according the method previously reported to obtain serum. Serum samples were then aliquoted to ELISA test and clinical analysis.
Heart, kidney and liver markers were measured from blood in several dpi (Scheme 1) with Cromakit® as previously reported. Mean and standard deviations were calculated using the levels measured for different populations of sera (n = 15, n = 3), and the confidence interval were also calculated based on a confidence level of 95% (100 × (1 − α) = 100 × (1 − 0.05)).

[11] = tested on: epimastigotes of T. cruzi Arequipa strain; assay: Mitochondrial membrane potential by flow cytometry (rhodamine 123); format: cell-based, Trypanosoma cruzi; settings: compounds at IC25 concentrations, 72 h; KCN 10 mM, 40 min; mean of three ± SD
[12] = format: in vivo, BALB/c mice; settings: oral 20 mg/Kg/day for 5 days; acute and chronic infections
Method: as §2, §3, §4, §5

[13] = treatment in the acute infection
[14] = treatment in acute phase, 16th dpi (2 days after treatment)
[15] = treatment in acute phase, necropsy day
[16] = treatment in chronic phase, 81th dpi (2 days after treatment)
[17] = treatment in chronic phase, necropsy day

SMILES: O=C(Cn1ccnc1[N+](=O)[O-])NCc1ccccc1 [BZN, benznidazole, reference compound]
- number of amastigotes per Vero cell ([1]; 50 μM, 72 h of exposure): practically zero
- IC50 ([1]; Trypanosoma cruzi, amastigotes in Vero cells, 72 h, mean of three ± SD): 8.3 ± 0.7 µM
- IC50 [2]: 12.4 ± 1.1 µM
- IC50 [3]: 16.6 ± 1.4 µM
- IC50 [4]: 19.7 ± 1.7 µM
- IC50 [5]: 10 ± 0.8 µM
- IC50 [6]: 15.1 ± 1.3 µM
- parasitaemia reduction on the day of maximum parasitaemia (T. cruzi Arequipa strain [7]; oral 20 mg/Kg/day for 5 days from 10th dpi, vs untreated control): ~ 65%
- parasitaemia undetectable, days before control mice (T. cruzi Arequipa strain [7]; oral 20 mg/Kg/day for 5 days, control detectable up to 50 dpi): 3 days
- reactivation of parasitaemia after immunosuppression (T. cruzi Arequipa strain [8]; [13]): 75%
- reactivation of parasitaemia after immunosuppression (T. cruzi Arequipa strain [8]; treatment in the chronic infection (from 75th dpi)): 51%
- clearance of nested parasites in target organs/tissues (parasite-free organs/tissues, PCR) (T. cruzi Arequipa strain [9]; [13]): 33%
- clearance of nested parasites in target organs/tissues (parasite-free organs/tissues, PCR) (T. cruzi Arequipa strain [9]; treatment in the chronic infection): 56%
- ALP, variation over the range [10, 14]: ++ (20-30% increase/decrease over the range)
- ALT/GPT, variation over the range [10, 14]: ++++ (˃ 40% increase/decrease over the range)
- AST/GOT, variation over the range [10, 14]: ++++ (˃ 40% increase/decrease over the range)
- CK-MB, variation over the range [10, 14]: = (variation ≤ 10%)
- LDH, variation over the range [10, 14]: = (variation ≤ 10%)
- Total bilirubin, variation over the range [10, 14]: ++ (20-30% increase/decrease over the range)
- Urea, variation over the range [10, 14]: --- (30-40% increase/decrease over the range)
- Uric acid, variation over the range [10, 14]: ---- (˃ 40% increase/decrease over the range)
- ALP, variation over the range [10, 15]: = (variation ≤ 10%)
- ALT/GPT, variation over the range [10, 15]: = (variation ≤ 10%)
- AST/GOT, variation over the range [10, 15]: ++++ (˃ 40% increase/decrease over the range)
- CK-MB, variation over the range [10, 15]: = (variation ≤ 10%)
- LDH, variation over the range [10, 15]: = (variation ≤ 10%)
- Total bilirubin, variation over the range [10, 15]: + (10-20% increase/decrease over the range)
- Urea, variation over the range [10, 15]: --- (30-40% increase/decrease over the range)
- Uric acid, variation over the range [10, 15]: = (variation ≤ 10%)
- ALP, variation over the range [10, 16]: ++++ (˃ 40% increase/decrease over the range)
- ALT/GPT, variation over the range [10, 16]: ++ (20-30% increase/decrease over the range)
- AST/GOT, variation over the range [10, 16]: ++ (20-30% increase/decrease over the range)
- CK-MB, variation over the range [10, 16]: -- (20-30% increase/decrease over the range)
- LDH, variation over the range [10, 16]: --- (30-40% increase/decrease over the range)
- Total bilirubin, variation over the range [10, 16]: +++ (30-40% increase/decrease over the range)
- Urea, variation over the range [10, 16]: --- (30-40% increase/decrease over the range)
- Uric acid, variation over the range [10, 16]: ---- (˃ 40% increase/decrease over the range)
- ALP, variation over the range [10, 17]: ++ (20-30% increase/decrease over the range)
- ALT/GPT, variation over the range [10, 17]: = (variation ≤ 10%)
- AST/GOT, variation over the range [10, 17]: + (10-20% increase/decrease over the range)
- CK-MB, variation over the range [10, 17]: = (variation ≤ 10%)
- LDH, variation over the range [10, 17]: -- (20-30% increase/decrease over the range)
- Total bilirubin, variation over the range [10, 17]: ++ (20-30% increase/decrease over the range)
- Urea, variation over the range [10, 17]: --- (30-40% increase/decrease over the range)
- Uric acid, variation over the range [10, 17]: -- (20-30% increase/decrease over the range)
- Inhibition on mitochondrial membrane potential with respect to untreated epimastigotes [11]: 35.4%
- death or body mass loss of treated mice [12]: none of the mice died or lost more than 10% body mass
